Source: the supplement of paper PMC10307832

Columns and labels:
Experiment in all cases: relative viability (nuclei count vs DMSO), 5 days (fraction); higher = more cells survive
4EGI-1 + Luminespib = compound: O=C(O)C(Cc1ccccc1[N+](=O)[O-])=NNc1nc(-c2ccc(Cl)c(Cl)c2)cs1 (mixture of isomers) [4EGI-1] + CCNC(=O)c1noc(-c2cc(C(C)C)c(O)cc2O)c1-c1ccc(CN2CCOCC2)cc1 [Luminespib] (partner 0.01 µM)
In short: (§1)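 Five library-drug doses in √10 steps were combined with a fixed anchor-drug dose, or a single drug was given alone, by pin tool to lung cancer cell lines in 1536-well plates the day after seeding. Nuclei were stained and counted after 5 days. Relative viability is the nuclei count in treated wells over that in vehicle wells, taken as the median of duplicate plates.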

4EGI-1 + AZD7762 = compound: O=C(O)C(Cc1ccccc1[N+](=O)[O-])=NNc1nc(-c2ccc(Cl)c(Cl)c2)cs1 (mixture of isomers) [4EGI-1] + NC(=O)Nc1cc(-c2cccc(F)c2)sc1C(=O)N[C@H]1CCCNC1 [AZD7762] (partner 0.2 µM)
In short: as §1

4EGI-1 + Lapatinib = compound: O=C(O)C(Cc1ccccc1[N+](=O)[O-])=NNc1nc(-c2ccc(Cl)c(Cl)c2)cs1 (mixture of isomers) [4EGI-1] + CS(=O)(=O)CCNCc1ccc(-c2ccc3ncnc(Nc4ccc(OCc5cccc(F)c5)c(Cl)c4)c3c2)o1 [Lapatinib] (partner 2 µM)
In short: as §1

XMD8-85 + OSI-027 = compound: CN1CCN(CC1)C2=CC(=C(C=C2)NC3=NC=C4C(=N3)N(C5=CC=CC=C5C(=O)N4C)C)OC [XMD8-85] + COc1cccc2cc(-c3nc([C@H]4CC[C@H](C(=O)O)CC4)n4ncnc(N)c34)[nH]c12 [OSI-027] (partner 0.5 µM)
In short: as §1

Row | Cell Line | relative viability (4EGI-1 + Luminespib; first compound 0.5 µM) | relative viability (4EGI-1 + Luminespib; first compound 5 µM) | relative viability (4EGI-1 + Luminespib; first compound 15.81 µM) | relative viability (4EGI-1 + Luminespib; first compound 50 µM) | relative viability (4EGI-1 + AZD7762; first compound 0.5 µM) | relative viability (4EGI-1 + AZD7762; first compound 5 µM) | relative viability (4EGI-1 + AZD7762; first compound 15.81 µM) | relative viability (4EGI-1 + AZD7762; first compound 50 µM) | relative viability (4EGI-1 + Lapatinib; first compound 0.5 µM) | relative viability (4EGI-1 + Lapatinib; first compound 5 µM) | relative viability (4EGI-1 + Lapatinib; first compound 15.81 µM) | relative viability (4EGI-1 + Lapatinib; first compound 50 µM) | relative viability (XMD8-85 + OSI-027; first compound 0.08 µM) | relative viability (XMD8-85 + OSI-027; first compound 0.253 µM) | relative viability (XMD8-85 + OSI-027; first compound 0.8 µM) | relative viability (XMD8-85 + OSI-027; first compound 2.53 µM) | relative viability (XMD8-85 + OSI-027; first compound 8 µM) | relative viability (4EGI-1 + Luminespib; first compound 1.581 µM) | relative viability (4EGI-1 + Lapatinib; first compound 1.581 µM) | relative viability (4EGI-1 + AZD7762; first compound 1.581 µM)
1 | NCI-H838 | 0.335 | 0.226 | 0.229 | 0.144 | 1.05 | 0.904 | 0.647 | 0.617 | 1.24 | 1.16 | 0.654 | 0.173 | 0.386 | 0.463 | 0.343 | 0.346 | 0.339 | – | – | –
2 | COR-L 105 | 1.04 | 0.801 | 0.667 | 0.598 | – | – | – | – | 0.421 | 0.371 | 0.343 | 0.293 | 0.6 | – | 0.589 | 0.512 | 0.324 | 0.648 | 0.38 | –
3 | HCC-366 | – | – | – | – | 0.33 | 0.293 | 0.174 | 0.0904 | 1.03 | 1.02 | 1.03 | 0.134 | 0.932 | 1.15 | 1.08 | 0.917 | 0.794 | – | 0.632 | 0.23
4 | NCI-H650 | 0.825 | 0.878 | 0.646 | 0.784 | 1.09 | 0.978 | 0.912 | 0.318 | 1.28 | 1.12 | 0.918 | 0.652 | 0.564 | 0.527 | 0.467 | 0.492 | 0.338 | – | – | –
5 | NCI-H1299 | – | – | – | – | – | – | – | – | 0.932 | 1.02 | 0.987 | 0.357 | – | – | – | – | – | – | 0.957 | –
6 | LCLC-97TM1 | 0.875 | 0.715 | 0.955 | 0.0986 | 0.242 | 0.362 | 0.41 | 0.0881 | 1.28 | 1.16 | 0.801 | 0.274 | 0.485 | – | 0.623 | 0.565 | 0.536 | 0.675 | – | –
7 | NCI-H1666 | 1.1 | 1.04 | 0.812 | 0.397 | 0.81 | 0.757 | 0.497 | 0.341 | 0.743 | 0.653 | 0.526 | 0.229 | 0.816 | 0.876 | 0.893 | 0.907 | 0.679 | 0.982 | 0.616 | 0.68
8 | NCI-H1993 | 1.03 | 0.801 | 0.637 | 0.496 | 0.904 | 0.937 | 0.504 | 0.356 | 0.945 | 0.838 | 0.693 | 0.767 | 0.516 | 0.454 | 0.636 | 0.548 | 0.552 | 0.786 | 0.718 | 0.689
9 | BEN | 0.371 | 0.318 | 0.331 | 0.152 | 0.76 | 0.689 | 0.593 | 0.382 | 0.786 | 0.734 | 0.573 | 0.612 | 0.439 | 0.344 | 0.274 | 0.264 | 0.307 | 0.332 | 0.854 | 0.657
10 | HCC-827 | 0.672 | 0.661 | – | 0.581 | 0.255 | 0.211 | – | 0.139 | 0.197 | 0.15 | – | 0.168 | 0.831 | 0.789 | 0.714 | 0.939 | 1 | 0.804 | 0.201 | 0.217
11 | HOP-62 | 0.974 | 0.868 | 0.89 | 0.31 | 0.878 | 0.54 | 0.454 | 0.101 | 1.06 | 1.08 | 0.961 | 0.362 | 0.806 | 0.867 | 0.842 | 0.845 | 0.436 | – | – | 0.408
12 | NCI-H1355 | 0.708 | 0.762 | 0.445 | 0.326 | 0.865 | 0.801 | 0.769 | 0.27 | 1.11 | 1.03 | 0.989 | 0.586 | 0.385 | 0.43 | 0.403 | 0.448 | 0.309 | 0.706 | 0.931 | 0.69
13 | A549 | – | – | – | – | – | – | – | – | 1.15 | 1.09 | 0.77 | 0.0791 | – | – | – | – | – | – | 1.04 | –
14 | A-427 | 1.04 | 1.01 | 0.793 | 0.315 | 0.819 | 0.715 | 0.513 | 0.231 | 1.11 | 1.06 | 0.997 | 0.6 | 0.466 | 0.573 | 0.482 | 0.52 | 0.337 | 0.658 | 0.728 | –
15 | NCI-H358 | 0.339 | 0.293 | 0.224 | 0.153 | 0.632 | 0.582 | 0.275 | 0.218 | 0.483 | 0.603 | 0.395 | 0.211 | 0.859 | 0.848 | 0.887 | 0.92 | 0.756 | 0.353 | 0.437 | –
16 | NCI-H23 | 0.221 | 0.23 | 0.246 | 0.179 | 0.372 | 0.27 | 0.23 | 0.192 | 1.24 | 1.09 | 1.13 | 0.43 | 0.589 | 0.692 | 0.614 | 0.654 | 0.409 | – | – | –
17 | LXF-289 | 0.745 | 0.745 | 0.644 | 0.407 | 1.05 | 1.06 | 1.04 | 0.545 | 0.893 | 0.893 | 0.763 | 0.677 | 0.758 | 0.915 | 0.852 | 0.936 | 0.579 | 0.62 | 0.912 | 1.1
18 | NCI-H1975 | 0.337 | 0.214 | 0.261 | 0.159 | 0.837 | 0.717 | 0.67 | 0.557 | 1.05 | 0.916 | 0.93 | 0.287 | 0.53 | 0.678 | 0.807 | 0.762 | 0.445 | – | 0.916 | 0.539
19 | NCI-H1703 | – | – | – | – | 0.121 | 0.147 | 0.12 | 0.119 | 1.46 | 1.17 | 1.22 | 0.437 | – | – | – | – | – | – | 0.955 | 0.131
